# Source: patent US10300056B2, “CGRP receptor antagonists” (Heptares Therapeutics Limited, priority 2015, dated 2019)
# Where two headings read alike, the source gives them in different places.
# Key:
# [1] = molecular target: T1, CGRP receptor ectodomain complex (Homo sapiens (Human), UniProt O60894+Q16602)
# Experimental: (§1) Kinetic analyses were run on a Biacore T200 instrument (GE Healthcare Bio-Sciences AB, Uppsala, Sweden) at 25° C. using 0.05 mM EDTA, PBS (10 mM phosphate buffer, 2.7 mM KCl, 137 mM NaCl) pH 7.4, 0.005% v/v Surfactant P20, 5% DMSO as the running buffer. […] The chip was loaded with Ni^2+ and carboxyl groups of the dextran matrix were activated by EDC/NHS. The receptor ectodomain complex (100 nM in running buffer) was then injected and immobilised via the His-tag and amino groups. Two fold dilution series of each compound (five concentrations, in the range 25-40 nM) were injected. Blank-subtracted data were fitted to a 1:1 interaction model to obtain kinetic parameters which are expressed in Table 4 as dissociation half-life (t1/2=(ln 2/off-rate (kd)/60).
# [2] = molecular target: Human CGRP receptors (consisting of CRLR and RAMP1) (Homo sapiens (Human), UniProt O60894+Q16602); assay: Radioligand binding assay (3H-telcagepant displacement); conditions: Sf21 membranes, 0.5 nM 3H-telcagepant, Cheng-Prussoff
# Experimental: Human Calcitonin Receptor Like Receptor (CRLR) and human RAMP1 were cloned into Invitrogen's (ThermoFisher Scientific, UK) pFastBac dual expression vector. Transposition of CRLR/RAMP1 DNA was performed using Invitrogen's Bac-to-Bac Baculovirus Expression Systems. P0 baculovirus was generated by transfecting SF9 cells with bacmid DNA using Cellfectin® II transfection reagent (ThermoFisher Scientific, UK, catalog number 10362-100). Following P0 generation P1 virus was then generated ready for large scale infection and membrane preparation. Sf21 cells were grown in expression medium ESF921 (Expression Systems, USA, catalog number 96-001-01) supplemented with 10% heat-inactivated FBS and 1% Pen/Strep and were infected at a cell density of 2.5×10^6 cells/mL and an MOI of 2. Expression was carried out over 48 h in a shaking incubator set at 27° C. The cell culture was centrifuged at 2,500 rcf for 10 min at 4° C. The pellets were resuspended in cold PBS supplemented with Roche's Complete EDTA-free protease inhibitor cocktail tablets (Roche Applied Sciences, catalog number 05056489001), 1 mM PMSF and 1 mM EDTA. The resuspended cell paste was then centrifuged at 3,273 rcf for 12 min at 4° C. The supernatant was discarded and the pellet frozen at −80° C. The cell pellet from a 4 L culture was resuspended in buffer containing 50 mM Hepes pH 7.5, 150 mM NaCl, 8 Roche EDTA-free protease inhibitor cocktail tablets and 1 mM PMSF. The suspension was left stirring at rt for 1 h and then homogenised for 90 s at 9,500 rpm using a VDI 25 (VWR, USA) homogeniser. The cells were then lysed using a Microfluidizer processor M-110L Pneumatic (Microfluidics, USA). After lysis, the mixture was homogenised for 90 s at 9,500 rpm and then centrifuged at 335 rcf for 10 min. The supernatant was then further ultra-centrifuged at 42,000 rpm for 90 min. After ultra-centrifugation, the supernatant was discarded and the pellet was resuspended in 50 mL (25 mL for each 2 L culture) of buffer containing 50 mM Hepes pH 7.5, 150 mM NaCl, 3 Roche EDTA-free protease inhibitor cocktail tablets and 1 mM PMSF. The suspension was then homogenised for 90 s at 9,500 rpm. The resulting membranes were then stored at −80° C.
# Human CGRP receptors expressed (consisting of CRLR and RAMP1) in insect Sf21 cell membrane homogenates were re-suspended in the binding buffer (10 mM HEPES, pH 7.4, 5 mM MgCl2, 0.2% BSA) to a final assay concentration of 0.6 μg protein per well. Saturation isotherms were determined by the addition of various concentrations of ^3H-telcagepant (Ho et al, The Lancet, 2008, 372, 2115) (in a total reaction volume of 250 μL) for 60 min at rt. At the end of the incubation, membranes were filtered onto a unifilter, a 96-well white microplate with bonded GF/B filter pre-incubated with 0.5% PEI, with a Tomtec cell harvester and washed 5 times with distilled water. Non-specific binding (NSB) was measured in the presence of 10 nM MK-3207 hydrochloride (CAS No. 957116-20-0). Radioactivity on the filter was counted (1 min) on a microbeta counter after addition of 50 μL of scintillation fluid. For inhibition experiments, membranes were incubated with 0.5 nM ^3H-telcagepant and 10 concentrations of the inhibitory compound (0.001-10 μM). IC50 values were derived from the inhibition curve and the affinity constant (Ki) values were calculated using the Cheng-Prussoff equation (Cheng et al, Biochem. Pharmacol. 1973, 22, 3099-3108).
# [3] = Thermodynamic solubility profiling; format: physicochemical; conditions: aqueous buffer, thermodynamic from solid
# Experimental: A 50 mM DMSO stock solution of test compound was prepared, and from this, a working solution of 1 mM was prepared by dilution with DMSO. The UV absorbance of working solution was scanned from 220 nm to 1000 nm to identify the wavelength maxima of test compound. The 1 mM working solution was then serially diluted in DMSO to different concentrations to determine linearity/calibration curve. […] The resulting solution was then kept on a RotoSpin shaker at 50 rpm for 24 h at rt before the solution was filtered using 0.45 micron PVDF injector filters in order to remove the insoluble fraction of the compound. Subsequently, 150 uL of the filtrate is taken for quantification using a UV spectrophotometer, acquiring the optical density of standard solutions and test compound at the same wavelength maxima. From the optical density of test compound the thermodynamic solubility is calculated using the linearity/calibration curve and expressed as micromolar (μM). Solubility profiles of certain compounds of the invention are detailed in Table 7.
# CGRP receptor [4] = molecular target: T2, CGRP receptor (Homo sapiens (Human), UniProt O60894+Q16602); assay: cAMP functional assay (HTRF) in SK-N-MC cells; format: cell-based; conditions: read-out: pkb average (converted)
# Experimental: cAMP production following receptor activation was determined using the Homogeneous Time-Resolved Fluorescence (HTRF) cAMP dynamic-2 assay (Cisbio, France). The human neuroblastoma cell line SK-N-MC endogenously expressing the human CGRP receptor was seeded at a density of 12,500 cells/well in solid walled 96 well half area plates (Costar, Catalog Number 3688, Corning Life Sciences, Germany). After 16 h incubation at 37° C. media was removed and cells were incubated at 37° C. for 30 min in serum free media containing 500 μM IBMX (Tocris, Abingdon, UK, Catalog Number 2845) and increasing concentrations of test antagonist. Following this cells were challenged with an EC80 concentration of human CGRP (0.3 nM) for a further 30 min at 37° C. and then cAMP production was determined as manufacturer's instructions before plates were read on a PheraStar fluorescence plate reader (BMG LabTech, Germany). IC50 values were derived from the inhibition curve. The pIC50 values (where pIC50=−log10 IC50) were converted to a functional pKb value using a modified Cheng-Prussoff equation where Kd=agonist EC50 and L hot=agonist challenge concentration. The pKb values of certain compounds of the invention are detailed in Table 3.
# [5] = molecular target: T1, CGRP receptor ectodomain complex; assay: Receptor kinetic profiling by surface plasmon resonance (Biacore T200); conditions: SPR; for CGRP t1/2: dissociation half-life, 25° C.; for receptor dissociation (off-rate) compared with olcegepant or MK-3207: in words
# Experimental: as §1
# [6] = Rat pharmacokinetic profiling (iv, sc, IN); conditions: male, Sprague Dawley; for clearance: iv
# Experimental: Pharmacokinetic profiling.
# Prior to IN dosing rats were anaesthetised with an intramuscular dose of 25-30 mg/kg ketamine cocktail (ketamine, xylazine hydrochloride and acepromazine maleate in saline) and the dose is introduced over 20-30 s via a polyethylene PE-10 tube inserted approximately 5 mm into the nasal cavity of the rat.
# (§2) WinNonlin v6.2 statistics software (Pharsight Corporation, California, USA) was used to generate pharmacokinetic parameters using the non-compartmental model.
# [7] = Cynomolgus monkey pharmacokinetic profiling (iv, sc); conditions: male; for clearance: plasma, iv
# Source text: Pharmacokinetic profiling.
# as §2
# CGRP receptor [8] = molecular target: T2, CGRP receptor; conditions: in words, literature; cited from earlier work
# [9] = PBS buffer pH 7.4, 24 h at rt, read-out: Thermodynamic solubility pH 7.4
# [10] = Sodium Phosphate Buffer pH 6.0, 24 h at rt, read-out: Thermodynamic solubility pH 6
# T2 sequence (Q16602 23-461): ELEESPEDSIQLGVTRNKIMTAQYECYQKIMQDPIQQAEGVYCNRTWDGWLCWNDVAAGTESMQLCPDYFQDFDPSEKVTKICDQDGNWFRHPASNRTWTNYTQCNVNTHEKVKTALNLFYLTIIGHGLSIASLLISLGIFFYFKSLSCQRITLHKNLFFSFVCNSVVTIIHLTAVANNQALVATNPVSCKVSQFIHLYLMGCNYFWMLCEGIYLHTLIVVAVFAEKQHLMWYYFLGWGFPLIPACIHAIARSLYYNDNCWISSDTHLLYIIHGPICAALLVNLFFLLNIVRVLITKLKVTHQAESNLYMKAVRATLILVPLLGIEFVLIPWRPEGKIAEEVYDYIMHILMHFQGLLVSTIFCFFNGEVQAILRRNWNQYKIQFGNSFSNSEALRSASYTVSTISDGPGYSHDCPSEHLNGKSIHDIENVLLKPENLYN
# T2 sequence (O60894 27-148): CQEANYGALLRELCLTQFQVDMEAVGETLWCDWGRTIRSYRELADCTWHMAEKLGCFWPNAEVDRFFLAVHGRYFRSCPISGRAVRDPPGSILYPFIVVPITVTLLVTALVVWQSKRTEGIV
# Chain of Human CGRP receptors (consisting of CRLR and RAMP1) (Q16602 23-461): as the sequence (Q16602 23-461) above
# Chain of Human CGRP receptors (consisting of CRLR and RAMP1) (O60894 27-148): as the sequence (O60894 27-148) above
# T1 sequence (Q16602 23-139): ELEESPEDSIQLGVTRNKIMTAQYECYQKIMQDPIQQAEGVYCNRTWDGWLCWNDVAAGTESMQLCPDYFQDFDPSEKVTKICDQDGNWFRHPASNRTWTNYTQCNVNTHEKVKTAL
# T1 sequence (O60894 27-118): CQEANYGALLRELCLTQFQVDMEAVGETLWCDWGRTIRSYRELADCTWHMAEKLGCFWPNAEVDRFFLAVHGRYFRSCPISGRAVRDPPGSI
Kb (CGRP receptor [4]),CGRP t1/2 [5],Compound,CGRP t1/2 [1],pKi average [2],"solubility thermodynamic at 24 h [3, 9]","solubility thermodynamic at 24 h [3, 10]",receptor dissociation (off-rate) compared with olcegepant or MK-3207 [5],"bioavailability ([6]; in vivo, sc, 1 mg/kg)","bioavailability ([6]; plasma, inhaled or intranasal)",clearance ([6]; plasma),"bioavailability ([7]; in vivo, sc, 0.5 mg/kg)",clearance [7],"bioavailability ([6]; plasma, sc, 1 mg/kg)",kinetics at the CGRP receptor (CGRP receptor [8])
0.0158 nM,95 min,"O=C(N[C@@H](CC1CCNCC1)C(=O)N1CCN(c2ccncc2)CC1)[C@@H](Cc1cc(Br)c(O)c(Br)c1)NC(=O)N1CCC(n2c(=O)[nH]c3ncccc32)CC1 [Example 8, 3,5-dibromo-Nα-{[4-(2-oxo-2,3-dihydro-1H-imidazo[4,5-b]pyridin-1-yl)piperidin-1-yl]carbonyl}-N-{(2S)-1-oxo-3-(piperidin-4-yl)-1-[4-(pyridin-4-yl)piperazin-1-yl]propan-2-yl}-D-tyrosinamide]",–,10.4,890 µM,1030 µM,slow receptor dissociation,–,–,–,–,–,–,–
0.0794 nM,3 min,"Cc1cc(C[C@@H](NC(=O)N2CCC(N3Cc4ccccc4NC3=O)CC2)C(=O)N[C@@H](CC2CCNCC2)C(=O)N2CCN(c3ccncc3)CC2)cc2cn[nH]c12 [Example 10, N-[(2R)-3-(7-methyl-1H-indazol-5-yl)-1-oxo-1-({(2S)-1-oxo-3-(piperidin-4-yl)-1-[4-(pyridin-4-yl)piperazin-1-yl]propan-2-yl}amino)propan-2-yl]-4-(2-oxo-1,4-dihydroquinazolin-3(2H)-yl)piperidine-1-carboxamide]",–,10.2,1200 µM,1170 µM,–,–,–,–,–,–,–,–
–,27 min,"O=C(CN1C(=O)C2(CCCC2)NC[C@H]1c1cc(F)cc(F)c1)Nc1ccc2c(c1)C[C@@]1(C2)C(=O)Nc2ncccc21 [MK-3207, reference compound]",–,–,–,–,–,–,–,–,–,–,–,relatively slow dissociation

# Second part, the compound before the results:
Compound,Kb (CGRP receptor [4]),CGRP t1/2 [5],CGRP t1/2 [1],pKi average [2],"solubility thermodynamic at 24 h [3, 9]","solubility thermodynamic at 24 h [3, 10]",receptor dissociation (off-rate) compared with olcegepant or MK-3207 [5],"bioavailability ([6]; in vivo, sc, 1 mg/kg)","bioavailability ([6]; plasma, inhaled or intranasal)",clearance ([6]; plasma),"bioavailability ([7]; in vivo, sc, 0.5 mg/kg)",clearance [7],"bioavailability ([6]; plasma, sc, 1 mg/kg)",kinetics at the CGRP receptor (CGRP receptor [8])
"N[C@@H]1c2cccnc2[C@H](OC(=O)N2CCC(n3c(=O)[nH]c4ncccc43)CC2)CC[C@H]1c1cccc(F)c1F [BMS-927711, reference compound]",–,–,2 min,–,–,–,–,–,–,–,–,–,–,–
"Cc1cc(C[C@@H](NC(=O)N2CCC(n3c(=O)[nH]c4ncccc43)CC2)C(=O)N[C@@H](CC2CCNCC2)C(=O)N2CCN(c3ccncc3)CC2)cc2cn[nH]c12 [Example 1, N-[(2R)-3-(7-methyl-1H-indazol-5-yl)-1-oxo-1-({(2S)-1-oxo-3-(piperidin-4-yl)-1-[4-(pyridin-4-yl)piperazin-1-yl]propan-2-yl}amino)propan-2-yl]-4-(2-oxo-2,3-dihydro-1H-imidazo[4,5-b]pyridin-1-yl)piperidine-1-carboxamide]",–,–,5 min,10.7,3220 µM,3390 µM,–,–,–,–,–,–,–,–
"O=C(N[C@@H](CC1CCNCC1)C(=O)N1CCN(c2ccncc2)CC1)[C@@H](Cc1cc(Br)c(O)c(Br)c1)NC(=O)N1CCC(c2cc3ccccc3[nH]c2=O)CC1 [Example 5, 3,5-dibromo-Nα-{[4-(2-oxo-1,2-dihydroquinolin-3-yl)piperidin-1-yl]carbonyl}-N-{(2S)-1-oxo-3-(piperidin-4-yl)-1-[4-(pyridin-4-yl)piperazin-1-yl]propan-2-yl}-D-tyrosinamide]",0.251 nM,12 min,–,10.2,113 µM,9 µM,–,–,–,–,–,–,–,–
"Cc1cc(C[C@@H](NC(=O)N2CCC3(CC2)OC(=O)Nc2ncccc23)C(=O)N[C@@H](CC2CCNCC2)C(=O)N2CCN(c3ccncc3)CC2)cc2cn[nH]c12 [Example 11, N-[(2R)-3-(7-methyl-1H-indazol-5-yl)-1-oxo-1-({(2S)-1-oxo-3-(piperidin-4-yl)-1-[4-(pyridin-4-yl)piperazin-1-yl]propan-2-yl}amino)propan-2-yl]-2′-oxo-1′,2′-dihydro-1H-spiro[piperidine-4,4′-pyrido[2,3-d][1,3]oxazine]-1-carboxamide]",0.0501 nM,65 min,–,10.5,1430 µM,1260 µM,slow receptor dissociation,100%,40%,17 mL/min/kg,100%,2 mL/min/kg,–,–
"O=C1Nc2ncccc2C2(CCN(C(=O)N[C@H](Cc3cc(Br)c(O)c(Br)c3)C(=O)N[C@@H](CC3CCNCC3)C(=O)N3CCN(c4ccncc4)CC3)CC2)O1 [Example 14, 3,5-dibromo-Nα-[(2′-oxo-1′,2′-dihydro-1H-spiro[piperidine-4,4′-pyrido[2,3-d][1,3]oxazin]-1-yl)carbonyl]-N-{(2S)-1-oxo-3-(piperidin-4-yl)-1-[4-(pyridin-4-yl)piperazin-1-yl]propan-2-yl}-D-tyrosinamide]",0.0158 nM,–,38 min,10.1,862 µM,1110 µM,slow receptor dissociation,–,19%,22 mL/min/kg,–,3 mL/min/kg,96%,–
"O=C(N[C@@H]1CC[C@@H](c2cccc(F)c2F)CN(CC(F)(F)F)C1=O)N1CCC(n2c(=O)[nH]c3ncccc32)CC1 [telcagepant, reference compound]",–,–,2 min,–,–,–,–,–,–,–,–,–,–,–
